Each structure is given as a SMILES string.

This data set can be described thus: Short-term stability in spiked pooled human plasma (bench-top, 4 °C, 56 °C).

With `Cc1[nH]c2ccccc2c1CCNCc1ccc(/C=C/C(=O)NO)cc1` [Panobinostat], the “Short-time stability (1h, 56°C) Accuracy [%]” value is 27.6% (validation standard 2xLLOV), 1.9% (validation standard LLOV), 48.8% (validation standard MOV) and 46.3% (validation standard ULOV). Besides, the “Short-time stability (24h, 4°C, without daylight) Accuracy [%]” value by setting is: (validation standard 2xLLOV) 81.5%; (validation standard LLOV) 66.1%; (validation standard MOV) 93.6%; (validation standard ULOV) 89.2%. Besides, the “Short-time stability (24h, RT, with daylight) Accuracy [%]” value was 53.1% (validation standard 2xLLOV), -0.2% (validation standard LLOV), 92.2% (validation standard MOV) and 96.0% (validation standard ULOV). Besides, the “Short-time stability (24h, RT, without daylight) Accuracy [%]” value amounted to 45.4% (validation standard 2xLLOV), 52.8% (validation standard LLOV), 96.2% (validation standard MOV) and 100.4% (validation standard ULOV).
`Cc1ccc(Nc2nccc(N(C)c3ccc4c(C)n(C)nc4c3)n2)cc1S(N)(=O)=O` [Pazopanib]: the “Short-time stability (24h, 4°C, without daylight) Accuracy [%]” value is listed as 101.2% (validation standard 2xLLOV), 104.1% (validation standard LLOV), 97.8% (validation standard MOV) and 97.1% (validation standard ULOV). Also, the “Short-time stability (24h, RT, with daylight) Accuracy [%]” value runs as follows: (validation standard 2xLLOV) 103.3%; (validation standard LLOV) 100.2%; (validation standard MOV) 99.1%; (validation standard ULOV) 102.6%. In addition, the “Short-time stability (24h, RT, without daylight) Accuracy [%]” value (validation standard 2xLLOV) came to 104.3%; the “Short-time stability (24h, RT, without daylight) Accuracy [%]” value (validation standard LLOV) is reported as 105.8%; the “Short-time stability (24h, RT, without daylight) Accuracy [%]” value (validation standard MOV) is reported as 101.2%; the “Short-time stability (24h, RT, without daylight) Accuracy [%]” value (validation standard ULOV) worked out at 99.1%.
Regarding `Nc1cccc2c1C(=O)N(C1CCC(=O)NC1=O)C2=O` (stereo not drawn) [Pomalidomide], the “Short-time stability (1h, 56°C) Accuracy [%]” value (validation standard 2xLLOV) is listed as 21.3%; the “Short-time stability (1h, 56°C) Accuracy [%]” value (validation standard LLOV) stood at 38.4%; the “Short-time stability (1h, 56°C) Accuracy [%]” value (validation standard MOV) stood at 20.6%; the “Short-time stability (1h, 56°C) Accuracy [%]” value (validation standard ULOV) came to 16.9%. Moreover, the “Short-time stability (24h, 4°C, without daylight) Accuracy [%]” value is, setting by setting: (validation standard 2xLLOV) 94.1%; (validation standard LLOV) 92.5%; (validation standard MOV) 96.7%; (validation standard ULOV) 88.6%. In addition, the “Short-time stability (24h, RT, with daylight) Accuracy [%]” value was determined as 51.2% (validation standard 2xLLOV), 42.4% (validation standard LLOV), 51.3% (validation standard MOV) and 43.6% (validation standard ULOV). The “Short-time stability (24h, RT, without daylight) Accuracy [%]” value reads like this: (validation standard 2xLLOV) 51.3%; (validation standard LLOV) 42.6%; (validation standard MOV) 51.2%; (validation standard ULOV) 43.8%.
Regarding `Cc1ccc(C(=O)Nc2ccc(CN3CCN(C)CC3)c(C(F)(F)F)c2)cc1C#Cc1cnc2cccnn12` [Ponatinib], where the note is “validation standard 2xLLOV”, the “Short-time stability (1h, 56°C) Accuracy [%]” value is 48.3%; the “Short-time stability (24h, 4°C, without daylight) Accuracy [%]” value turned out to be 96.6%; the “Short-time stability (24h, RT, with daylight) Accuracy [%]” value is 98.7%; the “Short-time stability (24h, RT, without daylight) Accuracy [%]” value is 98.1%. For the same molecule, under “validation standard MOV”, the “Short-time stability (1h, 56°C) Accuracy [%]” value was 50.8%; the “Short-time stability (24h, 4°C, without daylight) Accuracy [%]” value stood at 100.1%; the “Short-time stability (24h, RT, with daylight) Accuracy [%]” value is 99.8%; the “Short-time stability (24h, RT, without daylight) Accuracy [%]” value is on record as 102.6%. Further, where the note is “validation standard ULOV”, the “Short-time stability (1h, 56°C) Accuracy [%]” value was found to be 43.1%; the “Short-time stability (24h, 4°C, without daylight) Accuracy [%]” value is 93.3%; the “Short-time stability (24h, RT, with daylight) Accuracy [%]” value is 97.8%; the “Short-time stability (24h, RT, without daylight) Accuracy [%]” value is reported as 98.9%.
As for `CN(C)C(=O)c1cc2cnc(Nc3ccc(N4CCNCC4)cn3)nc2n1C1CCCC1` [Ribociclib], the “Short-time stability (1h, 56°C) Accuracy [%]” value reads like this: (validation standard 2xLLOV) 49.7%; (validation standard LLOV) 30.6%; (validation standard MOV) 50.5%; (validation standard ULOV) 41.5%. For the same molecule, the “Short-time stability (24h, 4°C, without daylight) Accuracy [%]” value (validation standard 2xLLOV) is reported as 98.0%; the “Short-time stability (24h, 4°C, without daylight) Accuracy [%]” value (validation standard LLOV) turned out to be 87.3%; the “Short-time stability (24h, 4°C, without daylight) Accuracy [%]” value (validation standard MOV) worked out at 98.8%; the “Short-time stability (24h, 4°C, without daylight) Accuracy [%]” value (validation standard ULOV) turned out to be 84.9%. For the same molecule, the “Short-time stability (24h, RT, with daylight) Accuracy [%]” value came to 94.2% (validation standard 2xLLOV), 79.3% (validation standard LLOV), 95.0% (validation standard MOV) and 84.8% (validation standard ULOV). Moreover, the “Short-time stability (24h, RT, without daylight) Accuracy [%]” value is, setting by setting: (validation standard 2xLLOV) 92.7%; (validation standard LLOV) 81.3%; (validation standard MOV) 93.5%; (validation standard ULOV) 83.3%.
